Results taken from patent US8992444B2, “Devices, systems, and methods for determining isometric and isotonic activity of luminal organs” (DTherapeutics, LLC, priority 2005, dated 2015).

Assays:
[1] = system: aorta, femoral artery, and mesenteric artery; test: isovolumic myography, dose-dependent vasoconstriction and vasodilatation; parameters: species or system Wistar male rats; conditions: 10^−5 mole/l; three types of arteries at physiological pressure
Description: Animals and tissue preparation. […] Six aorta, six femoral arteries, and six mesenteric arteries were harvested from eighteen rats. The animals were acclimated to the testing facility for approximately one week prior to the start of the study. On the day of termination, each animal was first anesthetized with sodium pentobarbital (80 mg/kg, i.p.) and euthanized by overanesthesia with sodium pentobarbital ([…], i.p.). Either the aorta, common femoral artery, or mesenteric artery were excised quickly and placed in ice-cold physiological saline solution (PSS in mmole/L: 119 NaCl, 4.7 KCl, 25 NaHCO3, 1.17 KH2PO4, 1.17 MgSO4, 1.6 CaCl, 5.5 Dextrose, solution gassed by 95% O2/5% CO2). The artery was carefully cleaned from adjacent tissue with the aid of a stereo-dissection microscope. The branches on the artery were ligated and the artery was allowed to warm up to room temperature (22° C.) slowly in approximately 10-15 min. The artery was transferred to the chamber of isovolumic system and cannulated with connectors and secured with 8-0 suture twice to avoid any leakage. The artery was warmed up to 37° C. slowly (20-25 min) and equilibrated for 40 min at a transmural pressure of 15 mmHg before agonist and antagonist stimulation.
Isovolumic myography. […]

[2] = system: carotid and femoral arteries; test: isovolumic myograph, vasoactivity of arterial segments; parameters: species or system Wistar rats; conditions: concentration-dependent contraction, FIG. 2
Description: Six Wistar rats weighing 300-350 g were used in the study. The animals were anesthetized with sodium pentobarbital (60 mg/kg, ip). A heating pad was used to maintain the body temperature of the animal during anesthesia. The left carotid and common femoral arteries of the rat were exposed and cannulated for blood pressure measurements. This was done to measure the in vivo difference in blood pressure between carotid and femoral arteries. Several 1 cm segments of right carotid and femoral arteries were excised and immediately stored in 4° C. physiological saline solution (PSS).
The samples were then prepared to be tested in the exemplary isovolumic myograph according to the present disclosure as shown in FIG. 1. To prepare the samples, PSS was first contained in an organ bath with a controlled heating system and warmed to 37° C. […]
Vessel 3 and pressure transducer 5 are isolated from the pressure system when vessel 3 is pressurized and the two stopcocks 6 and 7 are closed to vessel 3. […] The changes of the pressure are recorded. […]
The dosage-dependent vasoconstriction in response to phenylephrine was recorded. The dosage- and endothelium-dependent vasodilatation in response to acetylcholine was also recorded in phenylephrine pre-constriction. The dosage-dependent and endothelium-independent vasodilatation in response to sodium nitroprusside (SNP) was recorded in phenylephrine pre-constriction. […]

For `CNC[C@H](O)c1cccc(O)c1` [phenylephrine], the “increase in intraluminal pressure” value [1] was 30 to 40 mmHg and the “concentration at which the pressure in the vessel reached a maximum” value [2] was 3 µmol/L.
